Measured values as given in ChEMBL document CHEMBL3232986, “Identification of a novel series of potent HCV NS5B Site I inhibitors” (Bioorg Med Chem Lett, 2014).

Assays:
[1] = Inhibition of HCV genotype 1b wild type NS5B polymerase using biotinylated oligo dT12 primer as substrate after 4 hrs in presence of [3H]UTP; parameters: species or system Hepatitis C virus subtype 1b
Hepatitis C virus = test: Antiviral activity against HCV genotype 1a H77c infected in human HuH7 cells after 3 days by luciferase reporter gene assay; format: functional, cell-based, Hepacivirus hominis; details: Huh-7, 72 h
[2] = Half life in dog liver microsomes; format: ADME, Canis lupus familiaris
[3] = Half life in monkey liver microsomes; format: ADME, Macaca mulatta; details: rhesus monkey
[4] = Cytotoxicity against human HuH7 cells after 4 hrs by CellTitre-Blue assay; format: cell-based, Huh-7
Liver microsome = test: Metabolic stability in human liver microsomes; format: ADME
[5] = Inhibition of CYP (unknown origin); format: ADME; details: human

Compound: COc1ccc2c(c1)[C@@H]1C[C@]1(C(=O)N1CC34CCC3(CN(C(=O)N(C)C)C4)C1)Cn1c-2c(C2CCCCC2)c2ccc(C(=O)NS(=O)(=O)C(C)C)cc21 (some centres not stated)
- IC50 [1]: 3 nM
- EC50 (Hepatitis C virus): 12 nM
- half-life [2]: 22 min
- half-life [3]: 24 min
- CC50 at 4 h [4]: 16000 nM

Compound: CCOCCN1CC23CCC2(C1)CN(C(=O)[C@]12C[C@H]1c1cc(OC)ccc1-c1c(C4CCCCC4)c4ccc(C(=O)NS(=O)(=O)C(C)C)cc4n1C2)C3 (some centres not stated)
- EC50 (Hepatitis C virus): 15 nM
- Stability (Liver microsome): Unstable
- CC50 at 4 h [4]: 10000 nM

Compound: COc1ccc2c(c1)[C@@H]1C[C@]1(C(=O)N1CC34CCC3(C1)CN(S(=O)(=O)C(C)C)C4)Cn1c-2c(C2CCCCC2)c2ccc(C(=O)NS(=O)(=O)N(C)C)cc21 (some centres not stated)
- IC50 [1]: 3 nM
- EC50 (Hepatitis C virus): 6 nM
- inhibition (INH) [5]: Active
- CC50 at 4 h [4]: 5000 nM
